GI50 and TGI data for 16 molecules are collected here from PubChem BioAssay (NCI).

What all share (test): NCI anticancer screen, dose series, 48 h
Test [1] concerns A549 NSCLC.
Test [2] relates to LOX IMVI melanoma.
Test [3] deals with BT-549 breast.
The subject of test [4] is HOP-62 NSCLC.
In test [5] the test system is SR leukemia.
For test [6], the system named is CAKI-1 renal.
In test [7] the test system is HCT-15 colon.
Test [8] deals with OVCAR-3 ovarian.
The test system of test [9] is RPMI-8226 leukemia.
Test [10] deals with UACC-62 melanoma.

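Growth conditions: 96-well plates. Treatment: test compound, 48 hours, 5 concentrations. Analysis: linear interpolation between bracketing concentrations; unreached endpoints set to highest concentration. GI50: concentration for 50% inhibition of growth. TGI is the concentration that stops growth completely.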

Consider `COc1ccc(CNc2nc3cc(N)cc(N)c3nc2-c2ccccc2)cc1OC`, for which the GI50 is 23.6 µM in [1]; 6.53 µM in test [2]; 14.8 µM in test [3]; 18.8 µM in test [4]; 2.94 µM in test [5]; 12.6 µM in test [6]. Also, the GI50 is 28 µM in test [7], 1.31 µM in test [8], 3.14 µM in test [9] and 11.7 µM in test [10]. For the same molecule, the TGI is more than 70.6 µM in [1]; more than 37.6 µM in test [2]; 32.5 µM in [3]; 34.4 µM in [4]; 25.9 µM in [5]; 26.2 µM in [6]. Besides, the TGI was more than 94.1 µM in [7], 3.33 µM in test [8], 13.5 µM in [9] and 24.9 µM in test [10].

Regarding `CC(=O)Nc1nc(SCc2ccccc2)c2ncn(C(C)=O)c2n1`, the GI50 in test [1] is more than 100 µM; in [2] it was 75.1 µM; in test [3], 85.3 µM; in test [4], 62.7 µM; in [5] it was more than 100 µM; in test [6], 28 µM. In addition, the GI50 in test [7] was 93 µM; in test [8] it was 84.3 µM; in test [9] it was 55.6 µM; in test [10], 61.8 µM. The TGI in test [1], in test [2], in test [3], in [4], in test [5] and in test [6] was more than 100 µM each time. For the same molecule, the TGI in [7], in test [8], in test [9] and in [10] was more than 100 µM in each case.

With `S=c1nc(Oc2ccc(Cl)c(Cl)c2)[nH]c(=S)[nH]1`, the TGI in test [1] is 61.4 µM; in [2] it was 37.8 µM; in test [3] it was more than 100 µM; in test [4], more than 67.6 µM; in test [5], more than 100 µM; in [6] it was more than 100 µM. Moreover, the TGI in [7] is more than 100 µM; in test [8] it was more than 100 µM; in test [9], 51.5 µM; in test [10], more than 60.3 µM.

For `CCN1C(=O)N(CC)C2C1NN=c1s/c(=C3\C(=O)N(CC(C)C)c4ccccc43)c(=O)n12` (stereo not drawn), the GI50 in test [1] is 0.957 µM; in [2], 0.811 µM; in test [3], 2.45 µM; in test [4], 0.797 µM; in [5] it was 0.522 µM; in test [6], 0.522 µM. Moreover, the GI50 in [7] was 0.438 µM; in [8] it was 0.284 µM; in test [9], 1.42 µM; in test [10] it was 0.603 µM. Moreover, the TGI in test [1] is more than 100 µM; in test [2] it was more than 100 µM; in test [3], more than 100 µM; in test [4], 34.8 µM; in test [5], more than 100 µM; in test [6], more than 100 µM. Also, the TGI in test [7] is more than 100 µM; in test [8] it was 0.799 µM; in [9], more than 100 µM; in test [10], 65.5 µM.

Turning to `N=C1c2nc3n(c2C(=O)c2nc4n(c21)CCCC4)CCCC3`, the GI50 in test [1] is 1.98 µM; in test [2] it was 0.406 µM; in test [3] it was 2.22 µM; in test [4], 0.921 µM; in test [5], 13.4 µM; in [6], 19.1 µM. Also, the GI50 in test [7] is 2.07 µM; in test [8], 27.1 µM; in [9], 27.5 µM; in test [10], 0.784 µM. For the same molecule, the TGI is 4.33 µM in test [1]; 2.15 µM in test [2]; 4.94 µM in [3]; 3.54 µM in [4]; more than 79.3 µM in test [5]; more than 83.2 µM in test [6]. The TGI in test [7] was 6.62 µM; in [8] it was more than 100 µM; in [9], more than 100 µM; in test [10], 2.04 µM.

As for `C=C1CC[C@@]2(C#N)[C@H]3[C@H](CC[C@@H]2C)[C@@H](C)C[C@@H](CC(C)(C)C#N)[C@H]13`, the GI50 in [1] was 3.52 µM; in test [2], 0.413 µM; in test [3], 1.23 µM; in test [4] it was 2.33 µM; in test [5], 1.57 µM; in test [6], 1.73 µM. Besides, the GI50 in test [7] is 0.604 µM; in [8], 2.88 µM; in [9], 0.589 µM; in [10], 2.45 µM. In addition, the TGI was 34.8 µM in test [1]; 14.5 µM in test [2]; 18.8 µM in [3]; 24.3 µM in test [4]; 40.3 µM in [5]; more than 100 µM in test [6]. The TGI stood at 23.1 µM in test [7], 28.8 µM in test [8], 26.3 µM in [9] and 16.7 µM in test [10].

As to `Cc1ccccc1CN1CC2=C(CCN(Cc3ccccc3)C2=O)N2CCN=C12`, the TGI in test [1], in test [2], in test [3], in test [4], in [5] and in test [6] was more than 100 µM throughout. Moreover, the TGI was more than 100 µM in [7], more than 87 µM in test [8], more than 100 µM in test [9] and more than 100 µM in [10].

Regarding `CCC1=C[C@@H]2CN(C1)Cc1c([nH]c3ccccc13)[C@@](C(=O)OC)(c1cc3c(cc1OC)N(C=O)[C@H]1[C@@](O)(C(=O)OC)[C@H](OC(C)=O)[C@]4(CC)[C@@H]5C[C@@H]5CN5CC[C@]31[C@@H]54)C2`, the GI50 in test [1] was 0.003 µM; in test [2], less than 0.000625 µM; in test [3], 0.00166 µM; in [4], 0.00158 µM; in test [5], less than 0.000625 µM; in test [6], 0.253 µM. Also, the GI50 in [7] is 0.107 µM; in test [8], less than 0.000625 µM; in test [9] it was less than 0.000625 µM; in [10], less than 0.000625 µM. Also, the TGI in test [1] is more than 6.25 µM; in [2], more than 6.25 µM; in test [3], 0.211 µM; in test [4], more than 6.25 µM; in test [6] it was more than 6.25 µM; in test [7], more than 6.25 µM. The TGI in test [9] and in test [10] was more than 6.25 µM each time.

`c1cc2c(cc1C(N1CCNCC1)N1CCNCC1)OCO2`: the TGI in test [1], in [2], in test [3], in test [4], in test [5] and in [6] was more than 100 µM each time. Further, the TGI in test [7], in [8], in test [9] and in test [10] was more than 100 µM in each case.

Turning to `COc1c(C)c2c(c(O)c1C/C=C(\C)CCC(=O)OCCN1CCOCC1)C(=O)OC2`, the GI50 was 0.289 µM in test [1]; 0.125 µM in [2]; 0.426 µM in test [3]; 0.457 µM in test [4]; 0.24 µM in test [5]; 0.299 µM in test [6]. Further, the GI50 in test [7] is 0.0928 µM; in [8], 0.348 µM; in [9], 0.891 µM; in [10] it was 0.354 µM. Besides, the TGI in test [1] was more than 100 µM; in test [2], more than 100 µM; in test [3], more than 100 µM; in test [4], more than 100 µM; in test [5], 32.6 µM; in test [6], more than 100 µM. Further, the TGI in [7], in [8], in [9] and in [10] was more than 100 µM throughout.

For `COc1cc(Cl)cc(-c2nn(C(=O)NCCN3CCN(C)CC3)cc2-c2ccncc2)c1`, the GI50 in test [1] is 9.55 µM; in test [2], 18 µM; in test [3] it was 3.37 µM; in test [4] it was 5.87 µM; in test [5], 29.8 µM; in test [6] it was 4.35 µM. The GI50 was 17.2 µM in test [7], 23.6 µM in test [8], 21.9 µM in test [9] and 4.95 µM in test [10]. Further, the TGI in test [1] is more than 100 µM; in test [2], 46.2 µM; in test [3] it was 18.6 µM; in test [4], 44.5 µM; in [5] it was more than 100 µM; in test [6], 25.3 µM. Further, the TGI in [7] is 69.9 µM; in test [8] it was 85.9 µM; in test [9], more than 100 µM; in test [10], 20.3 µM.

Take `CC1(C)OC[C@@H]([C@@]2(CO[Si](C)(C)C(C)(C)C)CC=CC(=O)O2)O1`: the GI50 in [1] is 16.7 µM; in test [2] it was 28.3 µM; in test [3], 24.1 µM; in test [4] it was 31 µM; in test [5], 19 µM; in [6] it was 12.2 µM. Besides, the GI50 in [7] was 34.7 µM; in test [8], 15.9 µM; in [9], 24.2 µM; in [10], 19 µM. Moreover, the TGI is 47.5 µM in [1]; more than 100 µM in test [2]; 47.8 µM in [3]; 53.1 µM in test [4]; 59.9 µM in test [5]; 57.7 µM in test [6]. Further, the TGI in test [7] was more than 100 µM; in test [8] it was 39.7 µM; in test [9], 80.5 µM; in test [10], 44.6 µM.

Take `CC1(C)NCCC[C@]2(C)[C@H]3C=CC4=C5C[C@](C)(CO)CC[C@]5(C)CC[C@@]4(C)[C@]3(C)CC[C@@H]12`: the GI50 is 1.89 µM in test [1]; 2.49 µM in test [2]; 3.46 µM in [3]; 2.3 µM in test [4]; 2.42 µM in test [5]; 3.7 µM in [6]. The GI50 in [7] is 4.21 µM; in [8] it was 2.69 µM; in test [9], 3.91 µM; in test [10], 3.13 µM. Further, the TGI in test [1] was 3.71 µM; in test [2] it was 6.76 µM; in test [3], 12.7 µM; in test [4], 5.16 µM; in test [5], 7.17 µM; in test [6] it was 13.8 µM. The TGI in test [7] turned out to be 16.4 µM; in test [8], 7.06 µM; in [9], 14.9 µM; in test [10], 10.9 µM.

`Cc1cc(C)c(O)c(CNCCCCCCNCc2cc(C)cc(C)c2O)c1`: the GI50 in test [1] is 2.23 µM; in [2], 1.48 µM; in [3], 2.24 µM; in test [4] it was 1.77 µM; in test [5], 1.34 µM; in test [6], 1.97 µM. Further, the GI50 is 1.4 µM in test [7], 1.64 µM in test [8], 1.94 µM in test [9] and 1.82 µM in [10]. The TGI in test [1] was 4.72 µM; in test [2] it was 2.88 µM; in test [3] it was 5.52 µM; in test [4], 3.6 µM; in test [5], 3.84 µM; in test [6] it was 4.49 µM. Also, the TGI in test [7] came to 3.05 µM; in test [8], 3.42 µM; in test [9], 4.96 µM; in [10], 3.41 µM.

`CN(C)CCCN=C(N)N`: the TGI in test [1], in test [2], in test [3], in test [4], in test [5] and in test [6] was more than 100 µM each time. Further, the TGI in [7], in [8], in [9] and in test [10] was more than 100 µM throughout.

Regarding `N#CC1=C(N)NC(=S)NC12Nc1ccccc1O2` (stereo not drawn), the GI50 in [1] was 37.2 µM; in test [2], 20.2 µM; in [3], 48.2 µM; in test [4] it was 17.5 µM; in test [5], 0.597 µM; in [6], 39.1 µM. Moreover, the GI50 in [7] was 21.6 µM; in test [8], 36.4 µM; in test [9] it was 21.9 µM; in test [10], 20.8 µM. Moreover, the TGI was more than 100 µM in test [1]; 50.4 µM in [2]; more than 100 µM in [3]; 57.7 µM in test [4]; more than 100 µM in test [5]; more than 100 µM in test [6]. The TGI was more than 100 µM in test [7], more than 100 µM in [8], 62.7 µM in [9] and 70 µM in test [10].
